Experimental data published in patent publication US5912230A, “Anti-fungal and anti-bacterial histatin-based peptides” (priority 1998, dated 1999).
Where no end group is shown, it is not given here.

Key:
[1] = system: P. gingivalis hemagglutination of erythrocytes; test: histatin peptide inhibition of hemagglutination assay; assay type: cell-based, Porphyromonas gingivalis; conditions: for Hemagglutination: lowest dose (μM) at which hemagglutination was observed using P. Gingivalis: 2 hours at room temperature, visual examination
Protocol: The P. gingivalis strain of Section C.(1) was also used for the hemagglutination assays. The bacterial growth and culture conditions were also the same as those described in Section C.(1).
A classic assay was utilized to determine the hemagglutination potential of the P. gingivalis strain. Microorganisms were inoculated into BFB broth and cultured overnight, for approximately 24 hours at 37° C. under strictly anaerobic conditions with continuous agitation on a minishaker (IKA-Labortechnik, Staufen i. Br., Germany). The bacteria were harvested by centrifugatin at 3,000 r.p.m. for 20 min, at 4° C., washed twice in 0.01M phosphate buffered saline (PBS), pH 7.4, and suspended in the same buffer to an optical density of 1.0 at 550 nm. […] One ml of blood was drawn each time, washed twice in PBS at 1,000 r.p.m. for 10 min at 4° C. and suspended in the same buffer at a 2% (v/v) final concentration. Fifty μl of the bacterial suspension were serially diluted in PBS (two-fold steps) in a 96-well U-bottom microplate (Costar, Cambridge, Mass.). Fifty μl of the erythrocyte suspension were added to each well. Controls without bacteria or erythrocytes were included. The microplate was slightly shaken and incubated at room temperature for 2 hours. Visible examination on a white background was used to determine hemagglutination. The amount of hemagglutination was rated as none,(-), moderate (+/-), or strong (+). Erythrocytes in control wells with PBS precipitated to the center of the well, whereas erythrocyte-bacteria aggregates precipitated at the periphery of the bottom. The hemagglutination titer was expressed as the reciprocal of the highest dilution of the bacterial suspension providing visible hemagglutination.
Preparation of erythrocyte and bacterial suspensions were the same as for the hemagglutination assay. Fifty μl of histatin peptide solutions were diluted in PBS in a U-bottom microplate, at various two-fold concentrations with 600 nmole/ml being the highest. The bacterial concentration utilized was normally twice the minimal concentration which gave strong hemagglutination. Equal volumes of the bacterial suspension were poured into the wells containing the histatin peptides. Finally, 50 μl of erythrocyte suspension were added in each well. The microplate was slightly shaken and incubated at room temperature for 2 hours. Controls were made by replacement of the peptide dilutions with PBS only. The experiments were conducted at least twice. The lowest histatin peptide concentration without hemagglutination (complete inhibition) was determined upon visual examination. The highest final histatin peptide concentration utilized was 100 nmole/ml.

[2] = system: Porphyromonas gingivalis strain A7A1-28; test: microdilution bacteriostatic assay (P. gingivalis growth inhibition); assay type: cell-based; conditions: for P. gingivalis: % increase in time to reach mid logphase growth (0.2 OD): 2 mM dose
Protocol: (a) The bacteria used in one investigation, Porphyromonas gingivalis strain A7A1-28, is a typical key pathogenic organism associated with destructive periodontal diseases. The bacteria were multiply subcultured in Enriched Todd Hewitt broth (ETHB, Difco Lab., Detroit, Mich.). Microorganisms were stored in the same broths containing 20% and 50% glycerol, at -20° C. and -70° C., respectively. These served as stock cultures from which all preparations originated.
Working stock cultures were maintained by weekly transfer to Brain Heart Infusion Anaerobic Sheep Blood Agar plates (BHIA, Becton Dickinson and Co., Cockeysville, Md.), and Trypticase Soy Anaerobic Sheep Blood Agar plates (TSA, Becton Dickinson and Co., Cockeysville, Md.). Plates were incubated for 3 to 4 days under strictly anaerobic conditions. For the bacteriostatic assay, bacteria were collected from plates, inoculated into the aforementioned broth and grown at 37° C., under strictly anaerobic conditions for 24 to 48 hours.
A modification of the typical microdilution assay (Rotilie et al., 1975) for the determination of minimal inhibitory concentration (MIC) of antimicrobial agents was utilized to investigate the bacteriostatic activity of the peptides. A standardized bacterial inoculum (P. gingivalis) was exposed to serially diluted antimicrobial peptides in an enriched broth medium that was suitable for the growth of anaerobic bacteria. The test was adapted for use in the 96-well microtiter plates. […] The modification introduced here was based on the spectrophotometric reading of the microtiter plate after incubation.
Microorganisms from cultures maintained in the aforementioned plates were inoculated into 5 ml of the above-mentioned broths and cultured overnight at 37° C. under strictly anaerobic conditions with continuous agitation on a minishaker (IKA-Labortechnik, Staufen i. Br., Germany). The bacteria were grown until reaching the late log phase and were then suspended in the same broths to an optical density (O.D.) of 0.1 at 560 nm. The peptides were diluted in 0.01M phosphate buffered saline (PBS), pH 7. Forty μl aliquots of peptide dilutions were added in each well of a U-bottom microtiter plate (Costar, Cambridge, Mass.) to give final concentrations of 2000, 1000, 500 and 250 μM. Twenty μl of bacterial inoculum was added to all the wells. Finally, 100 μl of the suitable broth were added to each well. The optical density of the wells of the microtiter plate was determined using a microplate reader set at 550 nm and the plate was then incubated under strictly anaerobic conditions for 24 hours. Controls were made by replacing the peptide dilutions with PBS alone. After the incubation, the mixtures in each well were mixed manually to resuspend sedimented bacteria and the plate was read again. The experiments were conducted twice every time. The biologic activity was calculated according to the formula:
100-[[(Fin ODexp-In ODexp)/(Fin ODctr-In ODctr)]×100]
In addition, the % increase in time to reach midlog phase growth was calculated.
The data presentation represent the means (±SEM) of at least 2 separate experiments.

Row | Substance | bacteria mediated hemagglutination inhibition, in words [1] | Hemagglutination: lowest dose (μM) at which hemagglutination was observed using P. Gingivalis [1] [µM] | P. gingivalis growth inhibition, in words [2] | P. gingivalis: % increase in time to reach mid logphase growth (0.2 OD) [2] [%]
1 | AKRHHGYKR [peptide 120] | bacteria mediated hemagglutination inhibition | 50 | P. gingivalis growth inhibition | 
2 | AKRHHGYKRK [peptide 119] | bacteria mediated hemagglutination inhibition | 25 | P. gingivalis growth inhibition | 
3 | AKRHHGYKRKF [peptide 118] | bacteria mediated hemagglutination inhibition | 6.25 | P. gingivalis growth inhibition | 
4 | AKRHHGYKRKFH [peptide 113] | bacteria mediated hemagglutination inhibition | 25 | P. gingivalis growth inhibition | 34.95
5 | His 11: histatin 11 (SEQ ID NO: 11), subpeptide of peptide 113 (KRHHGYKR) | bacteria mediated hemagglutination inhibition | 100 | P. gingivalis growth inhibition | 
6 | KRHHGYKRKF [peptide 129] | bacteria mediated hemagglutination inhibition | 50 | P. gingivalis growth inhibition | 15.4
7 | peptide 117: subpeptide of peptide 113 (SEQ ID NO: 19) (KRHHGYKRKFH) | bacteria mediated hemagglutination inhibition |  | P. gingivalis growth inhibition | 
